Assay type in all cases: cell-based
One test concerns HeLaLuc705 cells. In words: SSO-mediated luciferase induction assay. The protocol:
FIG. 1B-1E. Effects with SSOs. FIG. 1B Structure of UNC2383. […] The cells were then rinsed and incubation continued for an additional 4 h in DMEM+10% FBS. Cells were rinsed twice in PBS and luciferase activity (RLU) and cell protein determined. The larger round symbol indicates the MM oligonucleotide. Means+/−SE. N=3. […] The cells were further incubated and then luciferase and protein determined. The total time of incubation in each case was 6 h. […] Means+/−SE. N=3.
FIG. 3. Effect and Cytotoxicity of Analogs. The effect of selected UNC2383 analogs on luciferase induction by SSO623 was measured as described in Methods and in the legend of FIG. 1B-1E. Cytotoxicity was measured using the Alamar Blue method as in FIG. 1E. MM10 is the effect of 10 uM compound in the presence of a mismatched oligonucleotide. Means and SE. N=3.
HeLaLuc705 cells are stably transfected with a firefly luciferase reporter whose coding sequence is interrupted by an abnormal intron. […] NIH-3T3-MDR cells are stably transfected with a human MDR1 cDNA coding for the P-glycoprotein (Pgp). We have described the maintenance and use of these cell lines elsewhere. (18, 20)
SSO-mediated luciferase induction assays were conducted as previously described. (18) In short, HeLaLuc705 cells in 24 well culture plates were preincubated with SSO623 followed by brief treatment with the small molecule; at intervals thereafter, luciferase activity and protein content were determined. […] (30)

Test [1] deals with lysosomes of HeLa Luc 705 cells. In words: Lysotracker Red accumulation assay. The conditions noted are these: 2 μM. How it is done: FIG. 9A-9D. Effects on lysosomes. FIG. 9A: Lysotracker uptake. Accumulation of Lysotracker Red in HeLa Luc 705 cells was measured after a 2 h exposure of cells to the indicated concentrations of various analogs. The lysosomotropic compound chloroquine was included as a positive control. Means of triplicate determinations are shown. The color-coded numbers refer to the fold increase in luciferase induction attained by the concentration of analog associated with the adjacent symbol on the graph. The numbers are taken from the data of FIG. 1C for UNC2383 and FIG. 4 for UNC4267, UNC4258, and UNC4428. FIG. 9B: LT50 vs TC50. […] Nonlinear regression was calculated using Prism software. The R^2 value for the plot is 0.91. FIG. 9C: 2383 vs chloroquine; luciferase induction. HeLa Luc705 cells were exposed to SSO623 and then treated with various concentrations of UNC2383 or chloroquine for 2 h and then tested for luciferase induction following the methods described in FIG. 1B-FIG. 1E. […]
The integrity of lysosomes was evaluated using the fluorescent probe Lysotracker Red (Thermo Fisher). […] Cells were thoroughly rinsed in PBS, lysed in 0.2% TX 100, and centrifuged briefly at 4000 rpm, and 100 uL of the supernate was distributed to black 96 well plates for analysis of fluorescence using a FLUOstar Omega 96 well microplate reader.

The test system of test [2] is EGFP654 mouse tracheal epithelial cells (MTEC). The test can be described thus: Splicing correction (EGFP expression) in EGFP654 mouse tracheal epithelial cells. The conditions noted are these: 1 uM SSO PS623 basolateral overnight, 3 uM OEC apical 2 hr. How it is done:
FIG. 13. EGFP654 Mouse tracheal cells. Well-differentiated tracheal epithelial cells derived from the EGFP654 mouse were treated basolaterally with 1 uM SSO PS623 (overnight) and apically with 3 uM OEC2383 (2 hr) or vehicle. Confocal microscopy images (xy, xz planes), bar=20 um.
FIG. 15B: P-PMO+OEC mediated splicing correction in EGFP654 MTEC. Well-differentiated cultures of primary tracheal cells (MTEC) derived from the EGFP654 mouse were treated with only one dose of P-PMO“654” (0.5 uM, overnight) followed by vehicle (−) or OEC2383 or OEC7938 (+), (10 uM, 2 hs). Both the SSO and OEC were added in cell medium either into the basolateral (BL, 400 ul) or the apical (AP, 30 ul) sides. MTEC were imaged in face at low mag. with a 10× lens in a fluorescence microscope, after 48 hs and 65 days post-treatment. All wells had the same total cell numbers. Vehicle controls<10 cells/well; n=3, bar=70 um. 1) Basolateral delivery of one treatment of P-PMO and OEC corrected>70% MTEC/well at 48 hs post-treatment. EGFP expression was still evident in large groups of cells after 65 days.
Methods: SSO623 (1 uM) was incubated basolaterally overnight in well-differentiated primary tracheal epithelial cells (MTEC) derived from the EGFP654 mouse (Wang et al, 2017); OEC2383 was administered apically or basolaterally (1-4 uM for 2-3 hs). […]

Setting [3] is: cells preloaded with 100 nM SSO623, FIG. 1D.

This note sets out measurements from patent US11040056B2, “Benzimidazoles that enhance the activity of oligonucleotides” (The University of North Carolina at Chapel Hill, priority 2018, dated 2021).

By EC50 is commonly meant the midpoint of the concentration-response curve. High values mean lower potency in that assay, low ones higher potency in that assay.

For `O=C(Nc1nc2ccccc2n1CCN1CCCC1)c1cc2cc(Cl)ccc2o1` [UNC2383], in the test on HeLaLuc705 cells, the “effectiveness in cells compared to Retro-1” value was “far more effective” and the “effectiveness in cells compared to UNC10217938” value is “approximately equivalent”. For the same molecule, the “enhancement of SSO actions” value with HeLaLuc705 cells (2 μM) is listed as “quite strongly enhanced”. Also, in the test on HeLaLuc705 cells (FIG. 9C, 2 h, chloroquine also 16 h), the “SSO-mediated luciferase induction, comparison with chloroquine” value is listed as “very active”. For the same molecule, in the test on HeLaLuc705 cells (setting [3]), the “onset of action: effects first observed” value was not above 30 min and the “onset of action: reaching a plateau” value is on record as not above 120 min. Also, a half-maximal effect in the test on HeLaLuc705 cells (luciferase induction by SSO623) (EC50) was put at 2000 nM. Further, the “luciferase induction after mismatched oligonucleotide” value with HeLaLuc705 cells (mismatched oligonucleotide followed by compound) is recorded as “no effect”. For the same molecule, the “effect on lysotracker accumulation” value in test [1] was “little effect”. Further, the “EGFP expression / enhancing activity in MTEC” value in test [2] is given as “notably expressed”.
